Target: T1, TsuCsx1 (Thioalkalivibrio sulfidiphilus, UniProt B8GSI1)
T1 construct: gene Tgr7_1803; full-length; N-terminal His8 fusion (pEV5HisTEV), no tag cleavage described; synthetic gene; E. coli C43; dimer
Assay: activation of cleavage of […]-labelled RNA, denaturing PAGE
Type: biochemical
Conditions: synthetic cA4, 1 µM; 0.5 µM TsuCsx1 dimer; 20 mM Tris-HCl, 150 mM NaCl, 1 mM DTT, pH 7.5; 35 °C; activator

T1 sequence (B8GSI1 entry or part of it): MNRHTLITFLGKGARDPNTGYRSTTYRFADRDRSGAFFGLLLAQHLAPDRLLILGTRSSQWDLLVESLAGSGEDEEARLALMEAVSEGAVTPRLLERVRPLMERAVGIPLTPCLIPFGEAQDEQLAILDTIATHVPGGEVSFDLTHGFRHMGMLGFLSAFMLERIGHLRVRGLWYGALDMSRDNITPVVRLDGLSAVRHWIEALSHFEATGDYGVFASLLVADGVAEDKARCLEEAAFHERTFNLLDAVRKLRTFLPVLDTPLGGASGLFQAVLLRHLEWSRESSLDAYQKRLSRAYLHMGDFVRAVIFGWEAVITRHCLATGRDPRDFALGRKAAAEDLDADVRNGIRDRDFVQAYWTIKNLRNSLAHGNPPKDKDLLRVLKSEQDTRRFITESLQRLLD

Nc1ncnc2c1ncn2[C@@H]1O[C@@H]2COP(=O)(O)O[C@H]3[C@@H](O)[C@H](n4cnc5c(N)ncnc54)O[C@@H]3COP(=O)(O)O[C@H]3[C@@H](O)[C@H](n4cnc5c(N)ncnc54)O[C@@H]3COP(=O)(O)O[C@H]3[C@@H](O)[C@H](n4cnc5c(N)ncnc54)O[C@@H]3COP(=O)(O)O[C@H]2[C@H]1O [cA4]
activation of cleavage of 32P-labelled RNA, denaturing PAGE: TsuCsx1 was strongly activated by synthetic cA4 but not by cA6

— PMC6755085, “Cyclic oligoadenylate signalling mediates Mycobacterium tuberculosis CRISPR defence” (Nucleic Acids Research, 2019)
